The values below come from patent publication US20240174634A1, “Aldehyde Dehydrogenase Inhibitors and Their Therapeutic Use” (priority 2020, published 2024).

Each structure is given as a SMILES string. pIC50: −log10 of the molar value. Bounds are passed on as bounds.

For this experiment, the target named is T1, ALDH1A3 (Homo sapiens, UniProt P47895).
T1 sequence (P47895 1-512): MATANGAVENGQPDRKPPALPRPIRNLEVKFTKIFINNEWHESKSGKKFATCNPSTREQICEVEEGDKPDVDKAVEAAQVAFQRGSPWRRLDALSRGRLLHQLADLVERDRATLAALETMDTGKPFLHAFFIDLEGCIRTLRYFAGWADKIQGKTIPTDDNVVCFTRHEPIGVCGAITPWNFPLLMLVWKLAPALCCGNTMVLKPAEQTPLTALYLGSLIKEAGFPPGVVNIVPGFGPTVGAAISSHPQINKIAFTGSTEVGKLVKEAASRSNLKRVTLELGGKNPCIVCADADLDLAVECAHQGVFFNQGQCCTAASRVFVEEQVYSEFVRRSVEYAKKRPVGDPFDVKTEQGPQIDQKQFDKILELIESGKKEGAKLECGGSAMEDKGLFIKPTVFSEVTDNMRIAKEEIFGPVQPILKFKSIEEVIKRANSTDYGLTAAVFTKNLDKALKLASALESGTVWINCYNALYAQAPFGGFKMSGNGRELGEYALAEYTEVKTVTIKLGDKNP
As to the kind of experiment: ALDH1A3 cellular assay (ALDEFLUOR) in WM266.4 melanoma cells. In kind it is cell-based. The settings on record: WM266.4 cells; 60 min incubation; percentage of ALDH-positive cells. The source says:
Materials: WM266.4 cells were procured from ATCC. (WM266-4 is a metastatic human melanoma cell line.) The ALDEFLUOR™ Assay kit (cat. no. 01700) and Aldefluor buffer (cat. no. 01702) were procured from StemCell Technologies. Dulbecco's Modified Eagle Medium (DMEM), FluoroBrite DMEM, Glutamax and Hoechst 33342 were purchased from ThermoFisher. Verapamil was obtained from Fluorochem. FBS was obtained from Sigma. Echo Qualified 384-well low-dead-volume microplate and Echo Qualified 384-well polypropylene microplate were purchased from Labcyte, and the Microclear black sterile polystyrene microplate from Greiner Bio-One.
Method: Intracellular inhibition of ALDH1A3 was assessed using the ALDEFLUOR™ Assay kit. The activated ALDEFLUOR™ reagent, BODIPY-aminoacetaldehyde (BAAA), is a fluorescent non-toxic substrate for ALDH enzymes, which freely diffuses into intact and viable cells. In the presence of ALDH enzyme activity, BAAA is converted into BODIPY-aminoacetate (BAA), which is retained inside the cells. The amount of fluorescent reaction product is proportional to the ALDH activity in the cells and is measured using an imaging cytometer. Active efflux of the reaction product is inhibited by an efflux inhibitor (Verapamil) in the ALDEFLUOR™ Assay Buffer.
A frozen vial of cells was recovered into a T225 flask containing DMEM, high glucose, 10% FBS, 1% glutamax, 1% HEPES. The following day, media was changed and cells were ready for assay from 72 hours after recovery. Cells were transferred into FluoroBrite DMEM (plus 10% FBS, 1% glutamax and 1% HEPES) and diluted to 2.5×10^5 cells/mL. 30 μL of cells were added to each well to give 7500 cells/well and then incubated overnight at 37° C., 5% CO2. After overnight incubation, the media was aspirated and replaced by 20 μL substrate/Hoechst buffer solution. Each plate requires 9 mL of solution comprising, 9 mL ALDEFLUOR assay buffer, 18 μL BAAA substrate (final concentration 500 nM), 4.5 μL Hoechst 33342 (final concentration 5 μg/mL) and 4.5 μL Verapamil (final concentration 50 μM). Compounds were prepared for dosing using the Echo acoustic dispenser by aliquoting into a source plate and dosed directly onto the cell assay plate to give a 10 point dose response per compound ranging from 10 μM to 0.0005 μM final concentration in 3-fold dilution steps. Plates were then incubated for 60 minutes at 37° C., 5% CO2. The buffer was then aspirated and cells washed twice in ice-cold PBS. Plates were kept on ice and 30 μL of cold Aldefluor buffer with 50 μM verapamil dispensed per well. The plates were then imaged using the CellInsight fluorescent microscope. Hoechst fluorescence in the 405 nm channel indicated the nuclear area and this was used to define nuclei and then the surrounding cellular area. Fluorescence in the 488 nm channel of the defined cellular area indicates ALDH1A3 activity. The percentage of cells positive for ALDH activity was plotted versus compound concentration to generate EC50 values using curve fitting parameters defined in Dotmatics software.
In the case of `CC1(c2ccccc2)COCCN1CCOc1ccc2c(c1)CCC(=O)N2` (stereo not shown) [ALDHI-2040, 6-[2-(3-methyl-3-phenyl-morpholin-4-yl)ethoxy]-3,4-dihydro-1H-quinolin-2-one], the negative logarithm of the IC50 (pIC50) (as a rule, −log10 of the IC50, conventionally taken in molar units) is 6.00 to 7.00. With `O=C1CCc2cc(OCCN3CCCC3c3cccnc3)ccc2N1` (stereo not shown) [ALDHI-2005, 6-[2-[2-(3-pyridyl)pyrrolidin-1-yl]ethoxy]-3,4-dihydro-1H-quinolin-2-one], the pIC50 is 6.00 to 7.00.

Compound `CC1(c2cccc(F)c2)CCCN1CCOc1ccc2c(c1)CCC(=O)N2` (stereo not shown) [ALDHI-2037, 6-[2-[2-(3-fluorophenyl)-2-methyl-pyrrolidin-1-yl]ethoxy]-3,4-dihydro-1H-quinolin-2-one] had a negative-log IC50 (pIC50) of over 7.00. As for `O=C1CCc2cc(OCCN3CCCC3c3ccccc3)ccc2N1` (stereo not shown) [ALDHI-2019, 6-[2-(2-phenylpyrrolidin-1-yl)ethoxy]-3,4-dihydro-1H-quinolin-2-one], the pIC50 is 6.00 to 7.00. As to `O=C1CCc2cc(OCCN(CCO)Cc3cccc(F)c3)ccc2N1` [ALDHI-3002, 6-[2-[(3-fluorophenyl)methyl-(2-hydroxyethyl)amino]ethoxy]-3,4-dihydro-1H-quinolin-2-one], the pIC50 was over 7.00. The compound `O=C1CCc2cc(OCCN3CCCC3c3cc(F)cc(F)c3)ccc2N1` (stereo not shown) [ALDHI-2032, 6-[2-[2-(3,5-difluorophenyl)pyrrolidin-1-yl]ethoxy]-3,4-dihydro-1H-quinolin-2-one] gave a pIC50 of over 7.00.

Consider `O=C1CSc2cc(OCCN3CCCC3c3cccnc3)ccc2N1` (stereo not shown) [ALDHI-2028, 7-[2-[2-(3-pyridyl)pyrrolidin-1-yl]ethoxy]-4H-1,4-benzothiazin-3-one], for which the negative-log IC50 (pIC50) is 6.00 to 7.00. Take `CC1CN(CCOc2ccc3c(c2)CCC(=O)N3)C(c2ccccc2)CO1` (mixture of isomers) [ALDHI-2042, 6-[2-(2-methyl-5-phenyl-morpholin-4-yl)ethoxy]-3,4-dihydro-1H-quinolin-2-one]: the negative-log IC50 (pIC50) is 6.00 to 7.00. As to `O=C1CCc2cc(OCCN3CCC[C@@H]3c3cccc(F)c3)ccc2N1` [ALDHI-2007, 6-[2-[(2R)-2-(3-fluorophenyl)pyrrolidin-1-yl]ethoxy]-3,4-dihydro-1H-quinolin-2-one], the pIC50 was over 7.00. Consider `O=C1CCc2cc(OCCN3C(=O)CCC3c3ccccc3)ccc2N1` (stereo not shown) [ALDHI-2051, 6-[2-(2-oxo-5-phenyl-pyrrolidin-1-yl)ethoxy]-3,4-dihydro-1H-quinolin-2-one], for which the pIC50 was over 7.00.

Take `O=C1CCc2cc(OCCN3CCC[C@H]3c3cccc(F)c3)ccc2N1` [ALDHI-2018, 6-[2-[(2S)-2-(3-fluorophenyl)pyrrolidin-1-yl]ethoxy]-3,4-dihydro-1H-quinolin-2-one]: the pIC50 was over 7.00. Under `Cc1ccc(C2CCCN2CCOc2ccc3c(c2)CCC(=O)N3)cc1` (stereo not shown) [ALDHI-2010, 6-[2-[2-(p-tolyl)pyrrolidin-1-yl]ethoxy]-3,4-dihydro-1H-quinolin-2-one] stands 6.00 to 7.00; under `O=C1CCc2cc(OCCN3CC(O)CC3c3cccc(F)c3)ccc2N1` (mixture of isomers) [ALDHI-2035, 6-[2-[2-(3-fluorophenyl)-4-hydroxy-pyrrolidin-1-yl]ethoxy]-3,4-dihydro-1H-quinolin-2-one], over 7.00; under `Cc1nc(C2CCCN2CCOc2ccc3c(c2)CCC(=O)N3)cs1` (stereo not shown) [ALDHI-2033, 6-[2-[2-(2-methylthiazol-4-yl)pyrrolidin-1-yl]ethoxy]-3,4-dihydro-1H-quinolin-2-one], 5.00 to 6.00.

As to `O=C1CCc2cc(OCCN3CCOCC3c3cccc(F)c3)ccc2N1` (stereo not shown) [ALDHI-2031, 6-[2-[3-(3-fluorophenyl)morpholin-4-yl]ethoxy]-3,4-dihydro-1H-quinolin-2-one], the pIC50 is over 7.00. The compound `O=C1CCc2cc(NC(=O)c3sc(N4CC(O)C4)nc3-c3cccc(F)c3)ccc2N1` [ALDHI-1004, 4-(3-fluorophenyl)-2-(3-hydroxyazetidin-1-yl)-N-(2-oxo-3,4-dihydro-1H-quinolin-6-yl)thiazole-5-carboxamide] showed a negative logarithm of the IC50 (pIC50) of over 7.00. Consider `O=C1COc2cc(OCCN3CCCC3c3cccc(F)c3)ccc2N1` (stereo not shown) [ALDHI-2009, 7-[2-[2-(3-fluorophenyl)pyrrolidin-1-yl]ethoxy]-4H-1,4-benzoxazin-3-one], for which the pIC50 was 6.00 to 7.00.

The compound `O=C1CCc2cc(NC(=O)c3scnc3-c3ccc(F)cc3)ccc2N1` [ALDHI-1017, 4-(4-fluorophenyl)-N-(2-oxo-1,2,3,4-tetrahydroquinolin-6-yl)thiazole-5-carboxamide] showed a pIC50 of 6.00 to 7.00. In the case of `O=C1CCc2cc(OCCn3nccc3-c3cccc(F)c3)ccc2N1` [ALDHI-2023, 6-[2-[5-(3-fluorophenyl)pyrazol-1-yl]ethoxy]-3,4-dihydro-1H-quinolin-2-one], the pIC50 was over 7.00. For the compound `O=C1CCc2cc(NC(=O)c3ocnc3-c3cccc(F)c3)ccc2N1` [ALDHI-1019, 4-(3-fluorophenyl)-N-(2-oxo-3,4-dihydro-1H-quinolin-6-yl)oxazole-5-carboxamide], the pIC50 was 5.00 to 6.00. In turn, `O=C1CSc2cc(OCCN3CCCC3c3ccncc3)ccc2N1` (stereo not shown) [ALDHI-2029, 7-[2-[2-(4-pyridyl)pyrrolidin-1-yl]ethoxy]-4H-1,4-benzothiazin-3-one] gave a pIC50 of 6.00 to 7.00. Turning to `O=C1CSc2cc(OCCN3CCCC3c3ccccn3)ccc2N1` (stereo not shown) [ALDHI-2027, 7-[2-[2-(2-pyridyl)pyrrolidin-1-yl]ethoxy]-4H-1,4-benzothiazin-3-one], the pIC50 was 5.00 to 6.00. The figure for `COc1cccc(C2CCCN2CCOc2ccc3c(c2)CCC(=O)N3)c1` (stereo not shown) [ALDHI-2034, 6-[2-[2-(3-methoxyphenyl)pyrrolidin-1-yl]ethoxy]-3,4-dihydro-1H-quinolin-2-one] is 5.00 to 6.00; for `O=C1CCc2cc(OCCN3CCCC3c3ccsc3)ccc2N1` (stereo not shown) [ALDHI-2014, 6-[2-[2-(3-thienyl)pyrrolidin-1-yl]ethoxy]-3,4-dihydro-1H-quinolin-2-one] it is 6.00 to 7.00; for `CC1(C)Oc2cc(OCCN3CCCC3c3cccc(F)c3)ccc2NC1=O` (stereo not shown) [ALDHI-2043, 7-[2-[2-(3-fluorophenyl)pyrrolidin-1-yl]ethoxy]-2,2-dimethyl-4H-1,4-benzoxazin-3-one] it is 6.00 to 7.00.

On to `O=C1CCc2cc(OCCN3CCCC3c3ccccc3F)ccc2N1` (stereo not shown) [ALDHI-2002, 6-[2-[2-(2-fluorophenyl)pyrrolidin-1-yl]ethoxy]-3,4-dihydro-1H-quinolin-2-one], for which the negative logarithm of the IC50 (pIC50) was 5.00 to 6.00. For `O=C1CSc2cc(OCCN3CCCC3c3cccc(F)c3)ccc2N1` (stereo not shown) [ALDHI-2008, 7-[2-[2-(3-fluorophenyl)pyrrolidin-1-yl]ethoxy]-4H-1,4-benzothiazin-3-one], the pIC50 is over 7.00. Take `O=C1CCc2cc(NC(=O)c3ncsc3-c3cccc(F)c3)ccc2N1` [ALDHI-1014, 5-(3-fluorophenyl)-N-(2-oxo-3,4-dihydro-1H-quinolin-6-yl)thiazole-4-carboxamide]: the negative logarithm of the IC50 (pIC50) is 5.00 to 6.00. Compound `O=C1CCc2cc(OCCN3CCCC3c3ccncc3)ccc2N1` (stereo not shown) [ALDHI-2004, 6-[2-[2-(4-pyridyl)pyrrolidin-1-yl]ethoxy]-3,4-dihydro-1H-quinolin-2-one] had a pIC50 of 5.00 to 6.00. Regarding `O=C1CCc2cc(OCCN3CCCC3c3cccs3)ccc2N1` (stereo not shown) [ALDHI-2013, 6-[2-[2-(2-thienyl)pyrrolidin-1-yl]ethoxy]-3,4-dihydro-1H-quinolin-2-one], the pIC50 is 6.00 to 7.00. The figure for `O=C1CCc2cc(NC(=O)c3ncsc3-c3ccsc3)ccc2N1` [ALDHI-1011, N-(2-oxo-3,4-dihydro-1H-quinolin-6-yl)-5-(3-thienyl)thiazole-4-carboxamide] is 5.00 to 6.00.
